Data on 8 molecules can be found in patent US10669272B2, “Substituted naphthyridinone compounds useful as T cell activators” (BRISTOL-MYERS SQUIBB COMPANY, priority 2018, dated 2020).

Read-outs that look alike come from different tables or passages of the source.

The test system of experiment [1] is OT-1 CD8+ T cells with SIINFEKL-loaded MC38 tumor cells. The experiment can be described thus: Murine cytotoxic T lymphocyte assay (IFN-γ, OT-1 CTL with MC38 tumor cells). It is filed as cell-based, mouse. Particulars: Mus musculus, MC-38; read-out: msCTL INFg IC50. In a few lines:
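IFN-γ was quantified by AlphaLISA in supernatants after 24 h co-culture at 37° C. Effectors were OT-1 CD8+ CTLs (5-day peptide/mIL2 expansion), exposed 1 h to DGK inhibitors before mixing 1:10 with MC38 tumor cells loaded 3 h with 1 μg/mL SIINFEKL peptide.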

For the next experiment, the system named is Human venous whole blood. The experiment can be described thus: Human whole blood IFN-γ assay.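 Further: blood from healthy donors exposed to compound for 1 h before stimulation with anti-CD3 and anti-CD28 at 1 µg/mL each, IFN-γ quantified in supernatant by AlphaLISA.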 It is filed as cell-based. Particulars: Homo sapiens, human whole blood, normalized to 3 μM reference compound with anti-CD3 plus anti-CD28 as 100% activation, read-out: INFg Whole Blood Normalized Agonist EC50.
The next experiment addresses T1, human DGKα (Homo sapiens, UniProt P23743).
T1 construct: TVMV protease cleavage site (C); Hexa-His (C); made in house; host or cells: Sf9 insect cells (baculovirus, Bac-to-Bac)
The experiment can be described thus: DGKα LIPGLO assay (extruded liposome substrate), in vitro DGK inhibition. It is filed as biochemical. Particulars: liposome (LIPGLO) assay; read-out: DGKa LIPGLO IC50.

Another experiment addresses T2, human DGKζ (Homo sapiens, UniProt Q13574).
T2 construct: TVMV protease cleavage site (C); Hexa-His (C); made in house; host or cells: Sf9 insect cells (baculovirus, Bac-to-Bac)
The experiment in a line: DGKζ LIPGLO assay (extruded liposome substrate), in vitro DGK inhibition. It is filed as biochemical. Particulars: liposome (LIPGLO) assay; read-out: DGKz LIPGLO IC50.

The next experiment concerns naïve human CD8 T cells. The experiment can be described thus: Human CD8 T cells IFN-γ assay.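 Further: Naïve human CD8 T cells stimulated with plate-bound anti-CD3 and soluble anti-CD28, IFN-γ in supernatant quantified by AlphaLISA and converted to pg/mL.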 It is filed as cell-based. Particulars: Homo sapiens, T-cell, 20 h, normalized to 3 μM reference compound with anti-CD3 plus anti-CD28 as 100% activation; read-out: HuCD8 INFG Normalized EC50.

T2 sequence (Q13574 with tags, fused parts or gaps isoform Q13574-4): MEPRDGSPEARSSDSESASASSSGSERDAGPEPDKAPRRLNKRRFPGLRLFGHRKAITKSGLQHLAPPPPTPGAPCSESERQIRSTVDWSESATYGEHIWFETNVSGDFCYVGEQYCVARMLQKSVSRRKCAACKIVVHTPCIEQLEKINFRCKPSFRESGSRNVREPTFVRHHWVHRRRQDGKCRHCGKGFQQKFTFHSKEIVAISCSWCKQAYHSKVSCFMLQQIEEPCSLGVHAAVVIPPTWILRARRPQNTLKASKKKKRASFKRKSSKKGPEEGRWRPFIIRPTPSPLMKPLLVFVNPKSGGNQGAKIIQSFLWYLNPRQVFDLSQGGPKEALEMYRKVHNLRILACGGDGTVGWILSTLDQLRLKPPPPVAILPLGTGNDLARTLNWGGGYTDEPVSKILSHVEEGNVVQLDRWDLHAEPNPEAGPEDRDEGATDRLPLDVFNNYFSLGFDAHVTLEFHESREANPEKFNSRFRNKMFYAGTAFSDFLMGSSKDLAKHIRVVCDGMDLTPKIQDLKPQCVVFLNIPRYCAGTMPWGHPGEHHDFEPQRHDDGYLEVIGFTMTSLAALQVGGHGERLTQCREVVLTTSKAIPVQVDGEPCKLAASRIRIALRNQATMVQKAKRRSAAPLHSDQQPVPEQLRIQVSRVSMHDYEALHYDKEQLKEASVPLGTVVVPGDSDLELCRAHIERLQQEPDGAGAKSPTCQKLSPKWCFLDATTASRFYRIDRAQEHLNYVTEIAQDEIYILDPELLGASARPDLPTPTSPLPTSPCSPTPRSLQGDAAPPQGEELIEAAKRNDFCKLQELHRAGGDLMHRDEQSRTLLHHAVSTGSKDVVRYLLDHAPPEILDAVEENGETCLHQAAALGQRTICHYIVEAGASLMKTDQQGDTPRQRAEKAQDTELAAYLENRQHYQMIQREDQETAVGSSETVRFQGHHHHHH
T1 sequence (P23743 with tags, fused parts or gaps): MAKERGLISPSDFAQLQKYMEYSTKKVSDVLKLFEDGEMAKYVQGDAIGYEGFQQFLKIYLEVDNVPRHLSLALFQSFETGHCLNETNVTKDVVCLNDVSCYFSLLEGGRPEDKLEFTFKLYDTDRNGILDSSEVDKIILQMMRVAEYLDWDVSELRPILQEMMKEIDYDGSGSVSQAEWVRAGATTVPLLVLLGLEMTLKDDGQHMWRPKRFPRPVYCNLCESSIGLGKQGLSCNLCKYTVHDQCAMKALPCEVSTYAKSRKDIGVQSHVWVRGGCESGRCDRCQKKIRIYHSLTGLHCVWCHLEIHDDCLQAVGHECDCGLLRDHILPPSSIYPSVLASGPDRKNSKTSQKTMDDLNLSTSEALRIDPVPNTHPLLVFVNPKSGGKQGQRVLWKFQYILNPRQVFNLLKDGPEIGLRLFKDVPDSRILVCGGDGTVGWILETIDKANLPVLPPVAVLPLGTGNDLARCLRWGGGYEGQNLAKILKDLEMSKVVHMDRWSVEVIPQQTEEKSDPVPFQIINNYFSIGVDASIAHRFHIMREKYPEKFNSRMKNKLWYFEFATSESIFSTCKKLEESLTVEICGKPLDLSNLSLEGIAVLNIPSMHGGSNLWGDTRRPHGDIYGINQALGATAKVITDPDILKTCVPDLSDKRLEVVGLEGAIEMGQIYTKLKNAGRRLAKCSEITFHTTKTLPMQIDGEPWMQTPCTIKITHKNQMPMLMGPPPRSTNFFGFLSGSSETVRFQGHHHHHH
Experimental for Human venous whole blood: Human Whole Blood IFN-γ Assay
Human venous whole blood (22.5 μL per well), obtained from healthy donors, was pre-treated with compounds for one hour at 37° C. in a humidified 95% air/5% CO2 incubator. The blood was stimulated with 2.5 μL anti-human CD3 and anti-CD28 mAb at a final concentration of 1 μg/mL each for 24 hours at 37° C. IFN-γ in the supernatants was measured using AlphLISA kit (Cat # AL217).

Regarding `C[C@@H]1CN(c2cc(=O)n(C)c3ccc(C#N)nc23)[C@@H](C)CN1C(c1ccc(Cl)cc1)c1ccc(Cl)cc1` [Example 25, 8-((2S,5R)-4-(bis(4-chlorophenyl)methyl)-2,5-dimethylpiperazin-1-yl)-5-methyl-6-oxo-5,6-dihydro-1,5-naphthyridine-2-carbonitrile], the figures for the IC50 (in experiment [1]; at human DGKα; on human DGKζ) were 41 nM, 650 nM and 250 nM, respectively. In addition, the values for the EC50 with Human venous whole blood (24 h) and in the experiment with naïve human CD8 T cells were 390 nM and 4.3 nM, respectively.

As for `C[C@@H]1CN(c2c(Cl)c(=O)n(C)c3ccc(C#N)nc23)[C@@H](C)CN1C(c1ccc(Cl)cc1)c1ccc(Cl)cc1` [Example 26, 8-((2S,5R)-4-(bis(4-chlorophenyl)methyl)-2,5-dimethylpiperazin-1-yl)-7-chloro-5-methyl-6-oxo-5,6-dihydro-1,5-naphthyridine-2-carbonitrile], the IC50 (usually the concentration that gives 50% inhibition) in experiment [1] was 10000 nM; on human DGKα it was 24000 nM; on human DGKζ, 3000 nM. Also, the values for the EC50 in the experiment on Human venous whole blood (24 h) and with naïve human CD8 T cells were 20000 nM and 2300 nM, respectively.

`COC(=O)C1CN(c2cc(=O)n(C)c3ccc(C#N)nc23)CCN1C(c1ccc(F)cc1)c1ccc(F)cc1` (stereo not shown) [Example 27, Methyl 1-(bis(4-fluorophenyl)methyl)-4-(6-cyano-1-methyl-2-oxo-1,2-dihydro-1,5-naphthyridin-4-yl)piperazine-2-carboxylate]: the values for the half-inhibitory concentration (IC50) (in experiment [1]; on human DGKα; on human DGKζ) were 64 nM, 240000 nM and 1700 nM, respectively. Moreover, the EC50 (in general, the concentration at which the effect is half-maximal) in the experiment on Human venous whole blood is 520 nM; with naïve human CD8 T cells, 62 nM.

Turning to `C[C@@H]1CN(c2cc(=O)n(C)c3ccc(C#N)nc23)CCN1C(c1ccc(F)cc1)c1ccc(F)cc1` [Example 28, (R)-8-(4-(bis(4-fluorophenyl)methyl)-3-methylpiperazin-1-yl)-5-methyl-6-oxo-5,6-dihydro-1,5-naphthyridine-2-carbonitrile], the values for the half-maximal inhibitory concentration (IC50) (in experiment [1]; on human DGKα; at human DGKζ) were 570 nM, 4600 nM and 2100 nM, respectively. Also, the EC50 in the experiment with Human venous whole blood (24 h) stood at 5300 nM; with naïve human CD8 T cells it was 38 nM.

Consider `C[C@@H]1CN(c2c(F)c(=O)n(C)c3ccc(C#N)nc23)CCN1C(c1ccc(F)cc1)c1ccc(F)cc1` [Example 30, (R)-8-(4-(bis(4-fluorophenyl)methyl)-3-methylpiperazin-1-yl)-7-fluoro-5-methyl-6-oxo-5,6-dihydro-1,5-naphthyridine-2-carbonitrile], for which the results for the IC50 (in experiment [1]; on human DGKα; at human DGKζ) were 15 nM, 500 nM and 430 nM, respectively. The concentration for a half-maximal effect (EC50) was 1600 nM with Human venous whole blood (24 h) and 430 nM with naïve human CD8 T cells.

Turning to `C[C@@H]1CN(c2c(C#N)c(=O)n(C)c3ccc(C#N)nc23)CCN1C(c1ccc(F)cc1)c1ccc(F)cc1` [Example 32, (R)-8-(4-(bis(4-fluorophenyl)methyl)-3-methylpiperazin-1-yl)-5-methyl-6-oxo-5,6-dihydro-1,5-naphthyridine-2,7-dicarbonitrile], the results for the IC50 (in experiment [1]; on human DGKα; at human DGKζ) were 43 nM, 980 nM and 850 nM, respectively. Also, the results for the EC50 in the experiment with Human venous whole blood and with naïve human CD8 T cells were 400 nM and 17 nM, respectively.

On to `C[C@H]1CN(c2cc(=O)n(C)c3ccc(C#N)nc23)CCN1C(c1ccc(F)cc1)c1ccc(F)cc1` [Example 35, (S)-8-(4-(bis(4-fluorophenyl)methyl)-3-methylpiperazin-1-yl)-5-methyl-6-oxo-5,6-dihydro-1,5-naphthyridine-2-carbonitrile], for which the 50% inhibitory concentration (IC50) in experiment [1] turned out to be 1100 nM; at human DGKα it was 21000 nM; at human DGKζ, 770 nM. For the same molecule, the EC50 with Human venous whole blood (24 h) was 2200 nM; with naïve human CD8 T cells, 61 nM.

As for `C[C@H]1CN(c2c(C#N)c(=O)n(C)c3ccc(C#N)nc23)CCN1C(c1ccc(F)cc1)c1ccc(F)cc1` [Example 38, (S)-8-(4-(bis(4-fluorophenyl)methyl)-3-methylpiperazin-1-yl)-5-methyl-6-oxo-5,6-dihydro-1,5-naphthyridine-2,7-dicarbonitrile], the results for the IC50 (in experiment [1]; on human DGKα; at human DGKζ) were 78 nM, 2200 nM and 1800 nM, respectively. In addition, the EC50 in the experiment with Human venous whole blood (24 h) is 3200 nM; with naïve human CD8 T cells it was 67 nM.
